Tested on: patients with narcolepsy type 1 or type 2
Test: MWT, 12-week phase 3 study in narcolepsy
Format: in vivo, human
Details: mITT
Procedure: The MWT is an objective test used to measure how alert a subject is during the day. The test consists of four sleep trials with two hours in between the trials. The first trial is performed 1.5-3 hours after the subject's normal wake-up time. Sensors are placed on the head, face, and chin to detect when the subject is asleep and awake during the test. The subject sits quietly in bed with his or her back and head supported by a pillow and is asked to sit still and look straight ahead while trying to stay awake as long as possible. Each trial lasts 40 minutes or until the subject is asleep for 90 seconds. Between trials, the subject stays out of bed and occupies himself or herself to remain awake. Falling asleep in an average of less than eight minutes is considered abnormal. About 40-60% of subjects with normal sleep stay awake for the entire 40 minutes of all four trials.
The study was a 12-week, double-blind, randomized, placebo-controlled, parallel-group study. Patients were randomized (1:1:1:1) to receive placebo or APC 75, 150, or 300 mg; randomization was stratified by the presence or absence of cataplexy.
Key inclusion criteria included adults 18-75 years old, inclusive, with a diagnosis of narcolepsy type 1 or type 2 according to ICSD-3 (American Academy of Sleep Medicine. The International Classification of Sleep Disorders—Third Edition (ICSD-3). Darien, IL: American Academy of Sleep Medicine; 2014) or DSM-5 (American Psychiatric Association. Diagnostic and Statistical Manual of Mental Disorders Fifth Edition (DSM-5). Arlington, VA: American Psychiatric Association; 2013) criteria, baseline mean sleep latency <25 minutes on the first 4 trials of a 5-trial, 40-minute Maintenance of Wakefulness Test (MWT) and baseline Epworth Sleepiness Scale (ESS) (Johns, Sleep 14(6):540 (1991)) score ≥10, usual nightly total sleep time ≥6 hours, and body mass index between 18 and 45 kg/m^2.
Co-primary endpoints were change from baseline to week 12 in MWT mean sleep latency and ESS score. The key secondary endpoint was the percentage of patients who reported improvement on the Patient Global Impression of Change (PGI-C) (Guy, ECDEU assessment manual for psychopharmacology, revised. US Department of Health, Education, and Welfare publication (ADM 76-338). Rockville, MD: National Institute of Mental Health; 1976) at week 12. Other secondary and exploratory endpoints included changes on function and quality-of-life and changes in the number of cataplexy attacks per week. Safety evaluation included adverse events, laboratory tests, and vital signs.
Efficacy analyses were based on the modified intent-to-treat population (mITT), defined as all patients who were randomized, received at least 1 dose of study drug, and had baseline and at least 1 post-baseline evaluation of both MWT and ESS. MWT and ESS were analyzed using a mixed-effect repeated measures (MMRM) model. PGI-C was analyzed using a chi-square test. A fixed hierarchical testing procedure was used to correct for multiplicity, starting with the highest dose of APC for the co-primary endpoints and the key secondary endpoint; testing proceeded with each subsequent lower doses.

With `NC(=O)OC[C@H](N)Cc1ccccc1` [JZP-110, (R)-2-amino-3-phenylpropyl carbamate] the “MWT mean sleep latency increase from baseline >=5 minutes, % of subjects” value (75 mg, Week 1) was “(34.5) %”, the “MWT mean sleep latency increase from baseline >=5 minutes, n subjects” value (75 mg, Week 1) was 10 and the “MWT mean sleep latency increase from baseline >=10 minutes, % of subjects” value (75 mg, Week 1) was “(24.1) %”. The “MWT mean sleep latency increase from baseline >=10 minutes, n subjects” value (75 mg, Week 1) was 7, the “MWT mean sleep latency increase from baseline >=15 minutes, % of subjects” value (75 mg, Week 1) was “(17.2) %” and the “MWT mean sleep latency increase from baseline >=15 minutes, n subjects” value (75 mg, Week 1) was 5. For the same compound, the “MWT mean sleep latency increase from baseline >=20 minutes, % of subjects” value (75 mg, Week 1) was “(10.3) %”, the “MWT mean sleep latency increase from baseline >=20 minutes, n subjects” value (75 mg, Week 1) was 3 and the “MWT mean sleep latency increase from baseline >=25 minutes, % of subjects” value (75 mg, Week 1) was “(3.4) %”. For the same compound, the “MWT mean sleep latency increase from baseline >=25 minutes, n subjects” value (75 mg, Week 1) was 1, the “MWT mean sleep latency increase from baseline >=30 minutes, n subjects” value (75 mg, Week 1) was 0 and the “MWT mean sleep latency increase from baseline >=5 minutes, % of subjects” value (75 mg, Week 4) was “(42.0) %”. For the same compound, the “MWT mean sleep latency increase from baseline >=5 minutes, n subjects” value (75 mg, Week 4) was 21, the “MWT mean sleep latency increase from baseline >=10 minutes, % of subjects” value (75 mg, Week 4) was “(24.0) %” and the “MWT mean sleep latency increase from baseline >=10 minutes, n subjects” value (75 mg, Week 4) was 12. The “MWT mean sleep latency increase from baseline >=15 minutes, % of subjects” value (75 mg, Week 4) was “(12.0) %”, the “MWT mean sleep latency increase from baseline >=15 minutes, n subjects” value (75 mg, Week 4) was 6 and the “MWT mean sleep latency increase from baseline >=20 minutes, % of subjects” value (75 mg, Week 4) was “(6.0) %”. For the same compound, the “MWT mean sleep latency increase from baseline >=20 minutes, n subjects” value (75 mg, Week 4) was 3, the “MWT mean sleep latency increase from baseline >=25 minutes, n subjects” value (75 mg, Week 4) was 0 and the “MWT mean sleep latency increase from baseline >=30 minutes, n subjects” value (75 mg, Week 4) was 0. For the same compound, the “MWT mean sleep latency increase from baseline >=5 minutes, % of subjects” value (75 mg, Week 12) was “(41.3) %”, the “MWT mean sleep latency increase from baseline >=5 minutes, n subjects” value (75 mg, Week 12) was 19 and the “MWT mean sleep latency increase from baseline >=10 minutes, % of subjects” value (75 mg, Week 12) was “(19.6) %”. The “MWT mean sleep latency increase from baseline >=10 minutes, n subjects” value (75 mg, Week 12) was 9, the “MWT mean sleep latency increase from baseline >=15 minutes, % of subjects” value (75 mg, Week 12) was “(15.2) %” and the “MWT mean sleep latency increase from baseline >=15 minutes, n subjects” value (75 mg, Week 12) was 7. For the same compound, the “MWT mean sleep latency increase from baseline >=20 minutes, % of subjects” value (75 mg, Week 12) was “(8.7) %”, the “MWT mean sleep latency increase from baseline >=20 minutes, n subjects” value (75 mg, Week 12) was 4 and the “MWT mean sleep latency increase from baseline >=25 minutes, % of subjects” value (75 mg, Week 12) was “(2.2) %”. The “MWT mean sleep latency increase from baseline >=25 minutes, n subjects” value (75 mg, Week 12) was 1, the “MWT mean sleep latency increase from baseline >=30 minutes, n subjects” value (75 mg, Week 12) was 0 and the “MWT mean sleep latency increase from baseline >=5 minutes, % of subjects” value (150 mg, Week 1) was “(68.2) %”. The “MWT mean sleep latency increase from baseline >=5 minutes, n subjects” value (150 mg, Week 1) was 15, the “MWT mean sleep latency increase from baseline >=10 minutes, % of subjects” value (150 mg, Week 1) was “(50.0) %” and the “MWT mean sleep latency increase from baseline >=10 minutes, n subjects” value (150 mg, Week 1) was 11. The “MWT mean sleep latency increase from baseline >=15 minutes, % of subjects” value (150 mg, Week 1) was “(22.7) %”, the “MWT mean sleep latency increase from baseline >=15 minutes, n subjects” value (150 mg, Week 1) was 5 and the “MWT mean sleep latency increase from baseline >=20 minutes, % of subjects” value (150 mg, Week 1) was “(9.1) %”. The “MWT mean sleep latency increase from baseline >=20 minutes, n subjects” value (150 mg, Week 1) was 2, the “MWT mean sleep latency increase from baseline >=25 minutes, n subjects” value (150 mg, Week 1) was 0 and the “MWT mean sleep latency increase from baseline >=30 minutes, n subjects” value (150 mg, Week 1) was 0. For the same compound, the “MWT mean sleep latency increase from baseline >=5 minutes, % of subjects” value (150 mg, Week 4) was “(61.2) %”, the “MWT mean sleep latency increase from baseline >=5 minutes, n subjects” value (150 mg, Week 4) was 30 and the “MWT mean sleep latency increase from baseline >=10 minutes, % of subjects” value (150 mg, Week 4) was “(42.9) %”. The “MWT mean sleep latency increase from baseline >=10 minutes, n subjects” value (150 mg, Week 4) was 21, the “MWT mean sleep latency increase from baseline >=15 minutes, % of subjects” value (150 mg, Week 4) was “(30.6) %” and the “MWT mean sleep latency increase from baseline >=15 minutes, n subjects” value (150 mg, Week 4) was 15. The “MWT mean sleep latency increase from baseline >=20 minutes, % of subjects” value (150 mg, Week 4) was “(16.3) %”, the “MWT mean sleep latency increase from baseline >=20 minutes, n subjects” value (150 mg, Week 4) was 8 and the “MWT mean sleep latency increase from baseline >=25 minutes, % of subjects” value (150 mg, Week 4) was “(10.2) %”. The “MWT mean sleep latency increase from baseline >=25 minutes, n subjects” value (150 mg, Week 4) was 5, the “MWT mean sleep latency increase from baseline >=30 minutes, n subjects” value (150 mg, Week 4) was 0 and the “MWT mean sleep latency increase from baseline >=5 minutes, % of subjects” value (150 mg, Week 12) was “(58.0) %”. For the same compound, the “MWT mean sleep latency increase from baseline >=5 minutes, n subjects” value (150 mg, Week 12) was 29, the “MWT mean sleep latency increase from baseline >=10 minutes, % of subjects” value (150 mg, Week 12) was “(48.0) %” and the “MWT mean sleep latency increase from baseline >=10 minutes, n subjects” value (150 mg, Week 12) was 24. The “MWT mean sleep latency increase from baseline >=15 minutes, % of subjects” value (150 mg, Week 12) was “(36.0) %”, the “MWT mean sleep latency increase from baseline >=15 minutes, n subjects” value (150 mg, Week 12) was 18 and the “MWT mean sleep latency increase from baseline >=20 minutes, % of subjects” value (150 mg, Week 12) was “(18.0) %”. The “MWT mean sleep latency increase from baseline >=20 minutes, n subjects” value (150 mg, Week 12) was 9, the “MWT mean sleep latency increase from baseline >=25 minutes, % of subjects” value (150 mg, Week 12) was “(8.0) %” and the “MWT mean sleep latency increase from baseline >=25 minutes, n subjects” value (150 mg, Week 12) was 4. For the same compound, the “MWT mean sleep latency increase from baseline >=30 minutes, % of subjects” value (150 mg, Week 12) was “(2.0) %”, the “MWT mean sleep latency increase from baseline >=30 minutes, n subjects” value (150 mg, Week 12) was 1 and the “MWT mean sleep latency increase from baseline >=5 minutes, % of subjects” value (300 mg, Week 1) was “(64.0) %”. The “MWT mean sleep latency increase from baseline >=5 minutes, n subjects” value (300 mg, Week 1) was 16, the “MWT mean sleep latency increase from baseline >=10 minutes, % of subjects” value (300 mg, Week 1) was “(56.0) %” and the “MWT mean sleep latency increase from baseline >=10 minutes, n subjects” value (300 mg, Week 1) was 14. The “MWT mean sleep latency increase from baseline >=15 minutes, % of subjects” value (300 mg, Week 1) was “(44.0) %”.

— patent US11865098B1, “Methods and compositions for treating excessive sleepiness” (Axsome Malta Ltd., priority 2017, dated 2024)
